Assay results reported in patent US7879881B2, “Piperidinyl compounds that selectively bind integrins” (Janssen Pharmaceutica NV, priority 2002, dated 2011).

What was measured:
Human αvβ3 = target: T1, Human αvβ3 (Homo sapiens, UniProt P05106+P06756); assay: In Vitro Solid Phase Purified αvβ3 Binding Assay (vitronectin/αvβ3); conditions: vitronectin binding to immobilized purified human αvβ3; mean ± spread; read-out: αvβ3IC50
T1 construct: purchased Chemicon International Inc., Temecula, Calif
Method: In Vitro Solid Phase Purified αvβ3 Binding Assay
(§1) Human αvβ3 (Chemicon International Inc., Temecula, Calif.), at a concentration of 1 μg/ml dissolved in Tris buffer (20 mM Tris, 1 mM CaCl2, 1 mM MgCl2, 10 μM MnCl2, 150 mM NaCl), was immobilized on Immulon 96 well plates (Dynex Technologies, Chantilly, Va.) overnight at 4° C. Plates were washed and treated with blocking buffer (3% BSA in Tris buffer) for 2 h at 37° C. Plates were then rinsed 2 times with assay buffer comprised of Tris buffer. Synthesized compounds were added to wells in duplicate immediately prior to the addition of 2 nM vitronectin (Sigma, St. Louis, Mo.). Following a 3 hour incubation at 37° C., plates were washed 5 times in assay buffer. An anti-human vitronectin IgG rabbit polyclonal antibody (Calbiochem, San Diego, Calif.) was added (1:2000) and plates were incubated for 1 hour at room temperature. VectaStain ABC peroxidase kit reagents (Vector Laboratories, Burlingame, Calif.) employing a biotin labeled anti-rabbit IgG, were utilized for detection of bound antibody. Plates were read at 490 nm on a Molecular Devices (Sunnyvale, Calif.) microplate reader.

GP IIb/IIIa = GP IIb/IIIa (Homo sapiens, UniProt P05106+P08514); assay: In Vitro Solid Phase Purified GP IIb/IIIa Binding Assay (biotinylated fibrinogen); conditions: biotinylated fibrinogen binding to immobilized purified GP IIb/IIIa; mean ± spread; read-out: αIIbβ3 IC50
Method: In Vitro Solid Phase Purified GP IIb/IIIa Binding Assay
The plate was covered and incubated overnight at 4° C. The GP IIb/IIIa solution was discarded and 150 μL of 5% BSA was added and incubated at RT for 1-3 h. The plate was washed extensively with modified Tyrodes buffer. Biotinylated fibrinogen (25 μL/well) at 2× final concentration was added to the wells that contain the test compounds (25 μL/well). The plate was covered and incubated at RT for 2-4 h. Twenty minutes prior to incubation completion, one drop of Reagent A (VectaStain ABC Horseradish Peroxidase kit, Vector Laboratories, Inc.) and one drop Reagent B were added with mixing to 5 mL modified Tyrodes buffer mix and let stand. The ligand solution was discarded and the plate washed (5×200 μL/well) with modified Tyrodes buffer. […] The Vecta Stain solution was discarded and the wells washed (5×200 μL/well) with modified Tyrodes buffer. Developing buffer (10 mL of 50 mM citrate/phosphate buffer @ pH 5.3, 6 mg o-phenylenediamine, 6 μL 30% H2O2; 50 μL/well) was added and incubated at RT for 3-5 min and then 2 N H2SO4 (50 μL/well) was added.

human purified αVβ5 = target: T2, human purified αVβ5 (Homo sapiens, UniProt P06756+P18084); assay: In Vitro Solid Phase Purified αcβ5 Binding Assay (vitronectin/αVβ5); conditions: vitronectin binding to immobilized purified human αVβ5; mean ± spread; read-out: αvβ5 IC50
T2 construct: purchased Chemicon International, Inc
Method: as §1
In Vitro Solid Phase Purified αcβ5 Binding Assay
All other aspects of the assay including buffers, reagents and incubation times remain unchanged.

Chain of GP IIb/IIIa (P08514 32-887 limits assumed): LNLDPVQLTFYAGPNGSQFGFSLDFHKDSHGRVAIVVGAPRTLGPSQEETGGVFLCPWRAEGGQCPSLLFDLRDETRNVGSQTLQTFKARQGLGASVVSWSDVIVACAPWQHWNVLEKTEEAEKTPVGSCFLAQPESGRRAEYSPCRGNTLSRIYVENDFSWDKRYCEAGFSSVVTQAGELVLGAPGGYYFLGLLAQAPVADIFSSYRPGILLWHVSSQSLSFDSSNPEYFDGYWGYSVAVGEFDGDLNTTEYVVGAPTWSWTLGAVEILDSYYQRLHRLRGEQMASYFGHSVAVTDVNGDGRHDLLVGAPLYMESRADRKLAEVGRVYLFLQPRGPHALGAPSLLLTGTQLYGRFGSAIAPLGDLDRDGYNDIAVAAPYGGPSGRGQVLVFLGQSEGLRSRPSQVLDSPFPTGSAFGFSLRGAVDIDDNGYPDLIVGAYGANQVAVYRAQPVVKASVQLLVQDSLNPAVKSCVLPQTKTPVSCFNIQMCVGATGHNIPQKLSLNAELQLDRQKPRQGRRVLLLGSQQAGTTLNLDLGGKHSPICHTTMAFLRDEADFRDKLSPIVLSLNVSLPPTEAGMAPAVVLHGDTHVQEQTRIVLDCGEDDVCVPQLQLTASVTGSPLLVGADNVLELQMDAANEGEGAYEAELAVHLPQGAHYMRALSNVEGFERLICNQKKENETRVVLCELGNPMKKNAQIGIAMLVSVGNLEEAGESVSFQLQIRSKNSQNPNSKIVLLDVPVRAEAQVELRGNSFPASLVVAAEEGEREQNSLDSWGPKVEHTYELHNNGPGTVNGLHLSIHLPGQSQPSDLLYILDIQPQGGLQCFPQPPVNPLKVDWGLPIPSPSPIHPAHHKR
Chain of GP IIb/IIIa (P08514 891-1039 partner limits assumed): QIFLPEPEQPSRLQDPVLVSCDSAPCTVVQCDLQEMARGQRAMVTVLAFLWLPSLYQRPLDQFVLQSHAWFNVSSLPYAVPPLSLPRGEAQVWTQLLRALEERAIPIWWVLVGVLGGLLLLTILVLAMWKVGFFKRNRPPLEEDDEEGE
Chain of GP IIb/IIIa (P05106 27-788): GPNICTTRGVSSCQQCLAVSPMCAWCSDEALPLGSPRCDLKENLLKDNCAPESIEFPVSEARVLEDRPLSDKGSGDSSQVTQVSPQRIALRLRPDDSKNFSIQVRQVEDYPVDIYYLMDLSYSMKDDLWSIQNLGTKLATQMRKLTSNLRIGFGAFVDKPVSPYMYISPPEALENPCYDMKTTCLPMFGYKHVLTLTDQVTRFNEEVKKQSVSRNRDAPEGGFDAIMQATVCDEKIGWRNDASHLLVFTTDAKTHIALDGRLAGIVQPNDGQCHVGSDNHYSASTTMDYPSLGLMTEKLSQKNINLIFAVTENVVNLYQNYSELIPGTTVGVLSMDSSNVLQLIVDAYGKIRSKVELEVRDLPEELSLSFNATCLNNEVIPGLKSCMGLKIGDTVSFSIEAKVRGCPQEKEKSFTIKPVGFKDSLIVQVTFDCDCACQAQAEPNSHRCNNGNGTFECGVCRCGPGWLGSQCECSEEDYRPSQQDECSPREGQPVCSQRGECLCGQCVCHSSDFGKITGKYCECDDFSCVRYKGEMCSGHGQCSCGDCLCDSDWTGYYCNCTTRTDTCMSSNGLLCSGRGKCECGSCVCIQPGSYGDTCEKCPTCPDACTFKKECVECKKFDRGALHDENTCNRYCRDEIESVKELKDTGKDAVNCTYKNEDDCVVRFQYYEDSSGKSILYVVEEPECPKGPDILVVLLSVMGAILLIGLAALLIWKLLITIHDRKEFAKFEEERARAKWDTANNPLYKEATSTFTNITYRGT
T2 sequence (P06756 31-889 limits assumed): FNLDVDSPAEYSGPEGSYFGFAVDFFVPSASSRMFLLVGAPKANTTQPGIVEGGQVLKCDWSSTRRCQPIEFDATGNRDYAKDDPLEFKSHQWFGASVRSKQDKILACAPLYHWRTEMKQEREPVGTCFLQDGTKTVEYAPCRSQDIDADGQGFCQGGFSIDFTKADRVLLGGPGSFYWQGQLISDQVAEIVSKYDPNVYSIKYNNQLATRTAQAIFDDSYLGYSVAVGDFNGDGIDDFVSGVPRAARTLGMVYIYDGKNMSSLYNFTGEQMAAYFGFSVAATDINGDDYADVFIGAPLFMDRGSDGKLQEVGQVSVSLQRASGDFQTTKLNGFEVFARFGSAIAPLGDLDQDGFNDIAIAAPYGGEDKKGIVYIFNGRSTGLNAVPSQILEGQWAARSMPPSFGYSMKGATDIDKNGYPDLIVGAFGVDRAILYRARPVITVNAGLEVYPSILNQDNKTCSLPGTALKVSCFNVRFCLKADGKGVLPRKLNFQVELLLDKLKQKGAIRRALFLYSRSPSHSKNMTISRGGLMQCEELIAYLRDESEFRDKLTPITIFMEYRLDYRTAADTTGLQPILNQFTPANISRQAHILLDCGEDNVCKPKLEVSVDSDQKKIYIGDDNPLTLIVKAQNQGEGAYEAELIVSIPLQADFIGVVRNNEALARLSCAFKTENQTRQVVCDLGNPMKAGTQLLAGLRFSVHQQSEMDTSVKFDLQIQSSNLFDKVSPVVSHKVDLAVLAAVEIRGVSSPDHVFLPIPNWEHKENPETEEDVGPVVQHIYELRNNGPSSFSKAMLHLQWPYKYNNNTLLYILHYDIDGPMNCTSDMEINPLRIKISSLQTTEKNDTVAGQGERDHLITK
T2 sequence (P06756 891-1048 partner limits assumed): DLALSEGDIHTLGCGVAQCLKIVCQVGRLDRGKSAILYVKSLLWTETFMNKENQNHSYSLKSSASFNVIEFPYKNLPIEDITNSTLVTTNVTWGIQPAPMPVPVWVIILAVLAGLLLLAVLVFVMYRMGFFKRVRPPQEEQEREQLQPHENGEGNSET
T2 sequence (P18084 24-799): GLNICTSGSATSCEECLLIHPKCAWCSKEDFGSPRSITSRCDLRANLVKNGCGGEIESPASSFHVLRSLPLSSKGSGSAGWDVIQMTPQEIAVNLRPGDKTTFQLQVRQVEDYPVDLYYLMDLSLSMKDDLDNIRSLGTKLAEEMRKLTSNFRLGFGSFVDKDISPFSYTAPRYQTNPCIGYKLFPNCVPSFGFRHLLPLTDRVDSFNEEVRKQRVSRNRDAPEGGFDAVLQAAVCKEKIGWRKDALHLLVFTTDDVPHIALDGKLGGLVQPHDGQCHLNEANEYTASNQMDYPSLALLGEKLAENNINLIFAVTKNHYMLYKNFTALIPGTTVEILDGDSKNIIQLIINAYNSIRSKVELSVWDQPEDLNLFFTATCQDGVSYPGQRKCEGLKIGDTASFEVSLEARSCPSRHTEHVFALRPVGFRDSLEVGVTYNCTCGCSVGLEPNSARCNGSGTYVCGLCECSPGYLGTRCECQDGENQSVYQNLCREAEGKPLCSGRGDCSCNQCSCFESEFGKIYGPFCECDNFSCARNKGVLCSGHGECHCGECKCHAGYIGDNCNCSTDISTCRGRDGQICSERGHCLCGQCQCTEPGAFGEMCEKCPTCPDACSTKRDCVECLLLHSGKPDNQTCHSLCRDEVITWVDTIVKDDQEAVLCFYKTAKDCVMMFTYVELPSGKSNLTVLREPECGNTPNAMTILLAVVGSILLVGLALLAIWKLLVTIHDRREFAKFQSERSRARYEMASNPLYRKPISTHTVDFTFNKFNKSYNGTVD
T1 sequence (P06756 31-889 limits assumed): as the sequence (P06756 31-889 limits assumed) above
T1 sequence (P06756 891-1048 partner limits assumed): as the sequence (P06756 891-1048 partner limits assumed) above
T1 sequence (P05106 27-788): as the sequence (P05106 27-788) above

Compound | IC50 (Human αvβ3) | IC50 (GP IIb/IIIa) | IC50 (human purified αVβ5)
COc1ccc(C(CC(=O)O)C2CCN(C(=O)CCCc3ccc4c(n3)NCCC4)CC2)cn1 (stereo not drawn) [Cpd 17, 6-methoxy-β-[1-[1-oxo-4-(5,6,7,8-tetrahydro-1,8-naphthyridin-2-yl)butyl]-4-piperidinyl]-3-pyridinepropanoic acid] | 0.8 ± 0.1 nM | 6600 ± 1420 nM | 31.3 ± 6 nM
O=C(O)CC(CC1CCN(C(=O)CCc2ccc3c(n2)NCCC3)CC1)c1cccc(F)c1 (single isomer, unassigned) [Cpd 30a, β-(3-fluorophenyl)-1-[1-oxo-3-(5,6,7,8-tetrahydro-1,8-naphthyridin-2-yl)propyl]-4-piperidinebutanoic acid] | 0.4 ± 0.2 nM | 2930 ± 1860 nM | 1.9 ± 0.4 nM
O=C(O)CC(CC1CCN(C(=O)CCc2ccc3c(n2)NCCC3)CC1)c1cccc(F)c1 (stereo not drawn) [Cpd 30, β-(3-fluorophenyl)-1-[1-oxo-3-(5,6,7,8-tetrahydro-1,8-naphthyridin-2-yl)propyl]-4-piperidinebutanoic acid] | 1 ± 0.2 nM | 14400 ± 5980 nM | 2.8 ± 0.1 nM
O=C(O)CC(c1cnc2c(c1)CCCC2)C1CCN(C(=O)CCCc2ccc3c(n2)NCCC3)CC1 (single isomer, unassigned) [Cpd 58a, 5,6,7,8-Tetrahydro-β-[1-[1-oxo-4-(5,6,7,8-tetrahydro-1,8-naphthyridin-2-yl)butyl]-4-piperidinyl]-3-quinolinepropanoic acid] | 0.4 ± 0.3 nM | 1440 ± 390 nM | 32.3 ± 8.2 nM
CSc1cccc(C(CC(=O)O)CC2CCN(C(=O)CCc3ccc4c(n3)NCCC4)CC2)c1 (racemic) [Cpd 66] | 1.2 ± 0.1 nM | 28300 nM | 10.3 ± 1.4 nM
O=C(O)CC(CCC1CCN(C(=O)Cc2ccc3c(n2)NCCC3)CC1)c1ccc2c(c1)OCO2 (stereo not drawn) [Cpd 55, β-(1,3-benzodioxol-5-yl)-1-[(5,6,7,8-tetrahydro-1,8-naphthyridin-2-yl)acetyl]-4-piperidinepentanoic acid] | 95 nM | 15600 nM | 737 nM
COc1cc(C(CC(=O)O)CC2CCN(C(=O)CCc3ccc4c(n3)NCCC4)CC2)ccc1O (stereo not drawn) [Cpd 76a] | 1.1 ± 0.2 nM | 10400 nM | 16.9 ± 2.1 nM
O=C(O)CC(CCC1CCN(C(=O)c2cccc(NC3=NCCCC3)c2)CC1)c1cnc2ccccc2c1 (stereo not drawn) [Cpd 50, β-[2-[1-[3-[(3,4,5,6-tetrahydro-2-pyridinyl)amino]benzoyl]-4-piperidinyl]ethyl]-3-quinolinepropanoic acid] | 15.6 ± 4.4 nM | 190 ± 40 nM | 676 nM
O=C(O)CC(CC1CCN(C(=O)CCc2ccc3c(n2)NCCC3)CC1)c1ccc2ccccc2c1 (single isomer, unassigned) [Cpd 56a, 3-Naphthalen-2-yl-4-[1-(3-5,6,7,8-tetrahydro-[1,8]naphthyridin-2-yl-propionyl)-piperidin-4-yl]-butyric acid] | 0.5 ± 0.2 nM | 14700 nM | 26.5 ± 3.4 nM
CCOC(=O)CCCC1CCN(C(=O)CCc2ccc3c(n2)NCCC3)CC1 [Cpd 68, 4-[1-(3-5,6,7,8-Tetrahydro-[1,8]naphthyridin-2-yl-propionyl)-piperidin-4-yl]-butyric acid ethyl ester] | 413 nM | 35600 nM | > 1000 nM
O=C(O)CC(CC1CCN(C(=O)CCc2ccc3c(n2)NCCC3)CC1)c1cccnc1 (stereo not drawn) [Cpd 45, β-[[1-[1-oxo-3-(5,6,7,8-tetrahydro-1,8-naphthyridin-2-yl)propyl]-4-piperidinyl]methyl]-3-pyridinepropanoic acid] | 0.8 ± 0.1 nM | 6610 ± 2850 nM | 1.7 ± 0.3 nM
O=C(O)CC(CCC1CCN(C(=O)c2cccc(NC3=NCC(O)CN3)c2)CC1)c1ccc2c(c1)OCO2 (stereo not drawn) [Cpd 54, β-(1,3-benzodioxol-5-yl)-1-[3-[(1,4,5,6-tetrahydro-5-hydroxy-2-pyrimidinyl)amino]benzoyl]-4-piperidinepentanoic acid] | 1.7 ± 0.5 nM | 240 nM | 34.7 ± 11.7 nM
O=C(O)CC(CC1CCN(C(=O)CCc2ccc3c(n2)NCCC3)CC1)c1ccc(F)cc1 (stereo not drawn) [Cpd 33, β-(4-fluorophenyl)-1-[1-oxo-3-(5,6,7,8-tetrahydro-1,8-naphthyridin-2-yl)propyl]-4-piperidinebutanoic acid] | 1.3 ± 0.4 nM | > 50000 nM | 22.6 ± 5.2 nM
O=C(O)CC(CC1CCN(C(=O)CCc2ccc3c(n2)NCCC3)CC1)c1cccc(F)c1 (single isomer, unassigned) [Cpd 30b, β-(3-fluorophenyl)-1-[1-oxo-3-(5,6,7,8-tetrahydro-1,8-naphthyridin-2-yl)propyl]-4-piperidinebutanoic acid] | 31.7 ± 14.7 nM | > 50000 nM | 48.2 ± 2.8 nM
O=C(O)CC(CCC1CCN(C(=O)CCCNc2ccccn2)CC1)c1ccc2c(c1)OCO2 (stereo not drawn) [Cpd 23, β-(1,3-benzodioxol-5-yl)-1-[1-oxo-4-(2-pyridinylamino)butyl]-4-piperidinepentanoic acid] | 298 ± 146 nM | 4930 nM | 2010 nM
O=C(O)CC(CCC1CCN(C(=O)CCc2ccc3c(n2)NCCC3)CC1)c1ccc2c(c1)OCO2 (stereo not drawn) [Cpd 20, β-(1,3-benzodioxol-5-yl)-1-[1-oxo-3-(5,6,7,8-tetrahydro-1,8-naphthyridin-2-yl)propyl]-4-piperidinepentanoic acid] | 142 ± 27 nM | 1800 nM | 995 nM
CC(C)(C)C(=O)OCOC(=O)CCCC1CCN(C(=O)CCc2ccc3c(n2)NCCC3)CC1 [Cpd 74, 4-[1-(3-5,6,7,8-Tetrahydro-[1,8]naphthyridin-2-yl-propionyl)-piperidin-4-yl]-butyric acid 2,2-dimethyl-propionyloxymethyl ester] | 193 nM | > 50000 nM | > 1000 nM
O=C(O)CC(CCC1CCN(C(=O)CCCNc2ccccn2)CC1)c1cnc2ccccc2c1 (stereo not drawn) [Cpd 22, β-[2-[1-[1-oxo-4-(2-pyridinylamino)butyl]-4-piperidinyl]ethyl]-3-quinolinepropanoic acid] | 4.6 ± 0.8 nM | 430 ± 70 nM | 195 nM
O=C(O)CC(CC1CCN(C(=O)CCc2ccc3c(n2)NCCC3)CC1)c1ccc2c(c1)OCC2 (stereo not drawn) [Cpd 36, β-(2,3-dihydro-6-benzofuranyl)-1-[1-oxo-3-(5,6,7,8-tetrahydro-1,8-naphthyridin-2-yl)propyl]-4-piperidinebutanoic acid] | 0.8 ± 0.06 nM | 3110 ± 40 nM | 0.7 ± 0.2 nM
O=C(O)CC(CC1CCN(C(=O)CCc2ccc3c(n2)NCCC3)CC1)c1cccs1 (racemic) [Cpd 63] | 1.8 ± 0.8 nM | 10200 ± 6410 nM | 7 ± 0.8 nM
COc1ncc(C(CC(=O)O)CC2CCN(C(=O)CCc3ccc4c(n3)NCCC4)CC2)cn1 (stereo not drawn) [Cpd 48, 2-methoxy-β-[[1-[1-oxo-3-(5,6,7,8-tetrahydro-1,8-naphthyridin-2-yl)propyl]-4-piperidinyl]methyl]-5-pyrimidinepropanoic acid] | 1 ± 0.5 nM | 1210 ± 200 nM | 3.3 ± 1.4 nM
O=C(O)CCCC1CCN(C(=O)CCc2ccc3c(n2)NCCC3)CC1 [Cpd 61] | 4.5 ± 0.7 nM | 37500 ± 31600 nM | 25.3 ± 7.3 nM
O=C(O)CC(CCC1CCN(C(=O)c2cccc(NC3=NCC(O)CN3)c2)CC1)c1cccnc1 (stereo not drawn) [Cpd 7, β-[2-[1-[3-[(1,4,5,6-Tetrahydro-5-hydroxy-2-pyrimidinyl)amino]benzoyl]-4-piperidinyl]ethyl]-3-pyridinepropanoic acid] | 8.2 ± 1.4 nM | 1670 ± 740 nM | 39.5 ± 8.5 nM
O=C(O)CC(c1cnc2ccccc2c1)C1CCN(C(=O)Cc2cccc(NC3=NCC(O)CN3)c2)CC1 (stereo not drawn) [Cpd 3, β-[1-[[3-[(1,4,5,6-Tetrahydro-5-hydroxy-2-pyrimidinyl)amino]phenyl]acetyl]-4-piperidinyl]-3-quinolinepropanoic acid] | 3.6 ± 0.4 nM | 210 nM | 2500 nM
O=C(O)CC(CC1CCN(C(=O)CCCc2ccc3c(n2)NCCC3)CC1)c1cnc2ccccc2c1 (stereo not drawn) [Cpd 29, β-[[1-[1-oxo-4-(5,6,7,8-tetrahydro-1,8-naphthyridin-2-yl)butyl]-4-piperidinyl]methyl]-3-quinolinepropanoic acid] | 2.2 ± 0.8 nM | 1740 ± 890 nM | 119 ± 15 nM
